Experimental findings from PubChem BioAssay (NCI) are described below.

Some test systems named below: UACC-257 melanoma; SF-295 CNS; M14 melanoma; SK-MEL-2 melanoma; SK-OV-3 ovarian; NCI-H522 lung; RPMI-8226 leukemia; NCI-H23 lung; OVCAR-8 ovarian; SN12C renal.
Holding throughout (assay): NCI tumour cell line growth inhibition, 48 h

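Grown in 96-well plates, cells were treated for 48 hours with each compound at five concentrations. Insufficient inhibition: endpoint recorded as highest concentration tested. GI50 = concentration required for 50% inhibition of growth. Definition used: TGI = concentration required for complete inhibition of growth.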

`Nc1nc(N)c(-c2ccc(Cl)cc2)c(/C=C/c2ccc([N+](=O)[O-])cc2)n1`: the GI50 is 7.51 µM in the experiment with UACC-257 melanoma; 4.39 µM with SF-295 CNS; 7.15 µM in the experiment with M14 melanoma; 18.6 µM in the experiment with SK-MEL-2 melanoma; 19.2 µM in the experiment on SK-OV-3 ovarian; 13.2 µM in the experiment on NCI-H522 lung. Moreover, the GI50 is 5.8 µM in the experiment on RPMI-8226 leukemia, 13.3 µM with NCI-H23 lung, 4.77 µM with OVCAR-8 ovarian and 8.02 µM in the experiment on SN12C renal. Besides, the TGI in the experiment on UACC-257 melanoma is above 100 µM; with SF-295 CNS it was above 100 µM; in the experiment with M14 melanoma, above 100 µM; in the experiment with SK-MEL-2 melanoma, 67.2 µM; in the experiment with SK-OV-3 ovarian, 56.4 µM; in the experiment with NCI-H522 lung, 41.9 µM. For the same compound, the TGI with RPMI-8226 leukemia, with NCI-H23 lung, with OVCAR-8 ovarian and with SN12C renal was above 100 µM each time.
With `NC(C(=O)O)c1ccc(C(=O)O)cc1` (stereo not given), the TGI in the experiment with UACC-257 melanoma, in the experiment with SF-295 CNS, in the experiment on M14 melanoma, in the experiment on SK-MEL-2 melanoma, in the experiment with SK-OV-3 ovarian and with NCI-H522 lung was above 100 µM in each case. The TGI with RPMI-8226 leukemia, in the experiment with NCI-H23 lung, in the experiment on OVCAR-8 ovarian and in the experiment on SN12C renal was above 100 µM each time.
Consider `O=C(CN1CCN(c2ccccn2)CC1)Nc1ccc(Cl)cc1C(=O)c1ccccc1Cl`, for which the GI50 in the experiment with UACC-257 melanoma was 54.9 µM; in the experiment with SF-295 CNS, 30.5 µM; in the experiment on M14 melanoma, 50.9 µM; with SK-MEL-2 melanoma it was above 100 µM; in the experiment with SK-OV-3 ovarian it was above 100 µM; with NCI-H522 lung, 16.6 µM. Also, the GI50 was 4.64 µM in the experiment on RPMI-8226 leukemia, 86.2 µM in the experiment with NCI-H23 lung, above 100 µM in the experiment with OVCAR-8 ovarian and above 100 µM in the experiment on SN12C renal. The TGI with UACC-257 melanoma, in the experiment on SF-295 CNS, in the experiment on M14 melanoma, in the experiment on SK-MEL-2 melanoma, in the experiment on SK-OV-3 ovarian and with NCI-H522 lung was above 100 µM each time. Besides, the TGI in the experiment with RPMI-8226 leukemia, in the experiment with NCI-H23 lung, with OVCAR-8 ovarian and in the experiment with SN12C renal was above 100 µM throughout.
`CN(C)c1ccc(/C=c2\sc3nnc(Cc4ccccc4)n3c2=O)cc1`: the GI50 with UACC-257 melanoma, in the experiment on SF-295 CNS, with M14 melanoma, in the experiment on SK-MEL-2 melanoma, in the experiment with SK-OV-3 ovarian and with NCI-H522 lung was above 100 µM throughout. Moreover, the GI50 in the experiment with RPMI-8226 leukemia, with NCI-H23 lung, in the experiment with OVCAR-8 ovarian and in the experiment on SN12C renal was above 100 µM each time. Further, the TGI with UACC-257 melanoma, with SF-295 CNS, in the experiment on M14 melanoma, in the experiment with SK-MEL-2 melanoma, with SK-OV-3 ovarian and in the experiment on NCI-H522 lung was above 100 µM throughout. Further, the TGI with RPMI-8226 leukemia, in the experiment on NCI-H23 lung, in the experiment with OVCAR-8 ovarian and with SN12C renal was above 100 µM throughout.
As to `COc1ccc([Se]c2ccc(OC)cc2)cc1`, the TGI with UACC-257 melanoma, with SF-295 CNS, in the experiment on M14 melanoma, with SK-MEL-2 melanoma, with SK-OV-3 ovarian and in the experiment with NCI-H522 lung was above 100 µM in each case. For the same compound, the TGI in the experiment on RPMI-8226 leukemia, with NCI-H23 lung, in the experiment on OVCAR-8 ovarian and with SN12C renal was above 100 µM each time.
`CSc1nc(-c2cccc(NC(=O)CCl)c2)c(C#N)c(=O)n1C`: the GI50 in the experiment on UACC-257 melanoma is 1.6 µM; in the experiment with SF-295 CNS, 1.7 µM; in the experiment with M14 melanoma it was 1.78 µM; in the experiment on SK-MEL-2 melanoma it was 2.17 µM; with SK-OV-3 ovarian, 12.5 µM; with NCI-H522 lung it was 1.12 µM. The GI50 was 1.75 µM in the experiment on RPMI-8226 leukemia, 1.46 µM in the experiment with NCI-H23 lung, 2.43 µM in the experiment with OVCAR-8 ovarian and 3.05 µM in the experiment on SN12C renal. The TGI stood at 6.08 µM in the experiment on UACC-257 melanoma; 3.22 µM in the experiment on SF-295 CNS; 5.61 µM in the experiment with M14 melanoma; 7.08 µM in the experiment on SK-MEL-2 melanoma; 48.1 µM in the experiment on SK-OV-3 ovarian; 3.21 µM in the experiment on NCI-H522 lung. The TGI in the experiment with RPMI-8226 leukemia is 4.88 µM; with NCI-H23 lung it was 3.01 µM; in the experiment with OVCAR-8 ovarian it was above 100 µM; in the experiment with SN12C renal, 18.1 µM.
On to `O=C(Nc1ccc(N2CCNCC2)cn1)c1[nH]ncc1Nc1ncnc2sc3c(c12)CCC3`, for which the GI50 with UACC-257 melanoma is 16.6 µM; with SF-295 CNS, 4.31 µM; with M14 melanoma it was 1.49 µM; with SK-MEL-2 melanoma, 13.6 µM; with SK-OV-3 ovarian, 16.3 µM; in the experiment on NCI-H522 lung, 1.92 µM. Moreover, the GI50 was 1.94 µM in the experiment on RPMI-8226 leukemia, 2.21 µM with NCI-H23 lung, 2.17 µM in the experiment on OVCAR-8 ovarian and 2 µM in the experiment with SN12C renal. In addition, the TGI worked out at 41.2 µM in the experiment with UACC-257 melanoma; 23.9 µM in the experiment on SF-295 CNS; 3.22 µM in the experiment with M14 melanoma; 35.1 µM in the experiment with SK-MEL-2 melanoma; 34.8 µM in the experiment with SK-OV-3 ovarian; 4.82 µM in the experiment with NCI-H522 lung. Further, the TGI in the experiment with RPMI-8226 leukemia was determined as 5.82 µM; in the experiment on NCI-H23 lung, 6.32 µM; in the experiment on OVCAR-8 ovarian, 5 µM; in the experiment on SN12C renal, 4.59 µM.
As for `CCCC(CCC)C(=O)O`, the GI50 in the experiment with UACC-257 melanoma is above 100 µM; with SF-295 CNS, above 100 µM; in the experiment on M14 melanoma it was 19900 µM; in the experiment on SK-MEL-2 melanoma, above 100 µM; in the experiment with SK-OV-3 ovarian, above 20000 µM; with NCI-H522 lung it was above 100 µM. In addition, the GI50 in the experiment on RPMI-8226 leukemia was above 100 µM; in the experiment on NCI-H23 lung, above 20000 µM; with OVCAR-8 ovarian it was above 100 µM; in the experiment on SN12C renal, above 20000 µM. In addition, the TGI in the experiment on UACC-257 melanoma, with SF-295 CNS, with M14 melanoma, in the experiment on SK-MEL-2 melanoma, in the experiment on SK-OV-3 ovarian and in the experiment with NCI-H522 lung was above 20000 µM throughout. Moreover, the TGI in the experiment on RPMI-8226 leukemia, in the experiment on NCI-H23 lung, with OVCAR-8 ovarian and in the experiment on SN12C renal was above 20000 µM throughout.
